Literature values, collected in patent US20060058589A1, “Animal model to evaluate visceral pain perception” (priority 2002, published 2006).

Tested on: visceromotor response to duodenal distention
Conditions: conscious, freely moving rats; dose-dependent manner

CN1CC[C@]23c4c5ccc(O)c4O[C@H]2[C@@H](O)C=C[C@H]3[C@H]1C5 [morphine]
visceromotor response to duodenal distention: inhibited
